Assay results taken from patent US7579356B2, “Thia-tetraazaacenaphthylene kinase inhibitors” (Janssen Pharmaceutica NV, priority 2005, dated 2009).

Legend:
Format in all cases: biochemical
EGFR = target: T1, EGFR (Homo sapiens, UniProt P00533); test: EGFR Kinase Assay; conditions: GST-EGFR, ATP 5 μM
T1 construct: The intracellular portion of EGFR started at nucleotide 2189 (corresponding to amino acid 667) and ended at the termination codon; made in house; host or cells: Sf9 insect cells (baculovirus)
How it was run: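 Potency came from triplicate 16-point half-log titrations starting at 200 uM, with IC50 fitted from % inhibition against log concentration, or % inhibition at 2 μM otherwise. Reaction: Sf9-made GST–EGFR cytoplasmic region (aa 667 onward), biotin-polyGluTyr, 5 μM ATP with 33P tracer, pH 8.0 Tris/Mg/vanadate/DTT, 30 °C for 1 h; captured on streptavidin Flashplates and counted.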

c-Src kinase (human) = target: T2, c-Src kinase (human) (Homo sapiens, UniProt P12931); test: c-Src Kinase Assay; conditions: test concentration of 2 μM; multiple values are separate assay results
T2 construct: purchased Upstate Biotechnology, Lake Placid, N.Y
How it was run: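 Inhibition was read as 33P incorporation, counted on P30 filtermats, after a 40 min, 30° C reaction. Human c-Src acted on 100 μM Cdc2 peptide with 5 μM ATP (final), pH 7.0 MOPS/MgCl2. Values are percent inhibition at 2 μM compound, or IC50 where determined.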

Lyn kinase (human) = target: T3, Lyn kinase (human) (Homo sapiens, UniProt P07948); test: Lyn Kinase Assay; conditions: test concentration of 2 μM
T3 construct: purchased Upstate Biotechnology, Lake Placid, N.Y
How it was run: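 Radiometric filter-binding assay with recombinant human Lyn, poly(Glu,Tyr) substrate (0.1 mg/mL final), 5 μM ATP plus γ-33P-ATP in MOPS pH 7.5/Mg acetate buffer; 40 min at 30 °C, stopped with phosphoric acid, counted by scintillation. Reported as percent inhibition at 2 μM, with IC50 (μM) where determined.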

HER-2 = target: T4, HER-2 (Homo sapiens, UniProt P04626); test: HER-2 Kinase Assay; conditions: for inhibition at 1 µM: test concentration of 1 μM; for IC50: value in parentheses
T4 construct: His6 with thrombin site (N); purchased Proqinase (Freiburg, Germany)
How it was run: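 Read-out was scintillation counting of 33P incorporated into biotinylated polyGluTyr captured on streptavidin plates. Reactions ran 1 h at 30 °C with GST-fused HER-2 residues 679–1255, 1 μM ATP, Mn2+ and Mg2+ at pH 7.5; data given as percent inhibition at 1 μM, with IC50 where determined.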

T2 sequence (P12931 whole entry): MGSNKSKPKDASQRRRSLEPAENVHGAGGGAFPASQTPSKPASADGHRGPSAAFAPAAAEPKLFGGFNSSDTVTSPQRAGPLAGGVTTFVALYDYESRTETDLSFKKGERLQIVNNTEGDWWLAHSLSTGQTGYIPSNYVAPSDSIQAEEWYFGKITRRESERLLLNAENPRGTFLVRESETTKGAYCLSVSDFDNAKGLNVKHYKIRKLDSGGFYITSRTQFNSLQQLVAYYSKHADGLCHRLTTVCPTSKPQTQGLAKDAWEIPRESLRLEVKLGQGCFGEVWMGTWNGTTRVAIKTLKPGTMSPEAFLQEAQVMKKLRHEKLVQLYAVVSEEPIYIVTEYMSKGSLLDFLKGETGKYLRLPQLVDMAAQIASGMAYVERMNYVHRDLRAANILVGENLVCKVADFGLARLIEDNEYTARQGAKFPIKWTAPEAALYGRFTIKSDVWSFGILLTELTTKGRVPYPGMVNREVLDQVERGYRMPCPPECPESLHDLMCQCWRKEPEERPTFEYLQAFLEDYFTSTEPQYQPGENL
T3 sequence (P07948 whole entry): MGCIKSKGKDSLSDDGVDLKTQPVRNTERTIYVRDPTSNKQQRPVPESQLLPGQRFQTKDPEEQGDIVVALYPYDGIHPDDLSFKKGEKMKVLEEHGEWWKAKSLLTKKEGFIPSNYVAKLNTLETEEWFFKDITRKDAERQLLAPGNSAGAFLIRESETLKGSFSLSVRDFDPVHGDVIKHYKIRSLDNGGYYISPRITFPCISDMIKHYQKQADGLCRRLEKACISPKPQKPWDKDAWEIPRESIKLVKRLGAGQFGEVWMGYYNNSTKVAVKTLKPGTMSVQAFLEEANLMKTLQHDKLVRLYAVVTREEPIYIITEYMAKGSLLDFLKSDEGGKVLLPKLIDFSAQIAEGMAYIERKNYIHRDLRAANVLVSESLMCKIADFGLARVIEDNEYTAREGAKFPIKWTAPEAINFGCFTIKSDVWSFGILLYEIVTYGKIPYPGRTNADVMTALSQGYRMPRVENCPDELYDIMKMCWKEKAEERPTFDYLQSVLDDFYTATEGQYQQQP
T1 sequence (P00533 669-1210 limits assumed): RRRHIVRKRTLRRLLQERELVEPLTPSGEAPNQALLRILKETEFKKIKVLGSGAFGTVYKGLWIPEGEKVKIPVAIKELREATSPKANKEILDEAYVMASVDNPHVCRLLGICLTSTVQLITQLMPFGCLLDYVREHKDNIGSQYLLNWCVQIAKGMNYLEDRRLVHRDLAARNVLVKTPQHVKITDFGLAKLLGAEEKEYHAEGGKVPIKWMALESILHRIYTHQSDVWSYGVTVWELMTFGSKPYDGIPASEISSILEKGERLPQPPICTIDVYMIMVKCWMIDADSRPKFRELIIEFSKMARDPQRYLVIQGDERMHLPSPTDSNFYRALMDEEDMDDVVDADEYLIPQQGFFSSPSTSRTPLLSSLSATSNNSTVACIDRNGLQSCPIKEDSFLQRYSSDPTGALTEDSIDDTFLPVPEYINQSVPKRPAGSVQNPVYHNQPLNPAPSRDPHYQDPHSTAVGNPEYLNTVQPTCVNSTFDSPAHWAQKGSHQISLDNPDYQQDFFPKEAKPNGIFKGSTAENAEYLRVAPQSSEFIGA
T4 sequence (P04626 679-1255): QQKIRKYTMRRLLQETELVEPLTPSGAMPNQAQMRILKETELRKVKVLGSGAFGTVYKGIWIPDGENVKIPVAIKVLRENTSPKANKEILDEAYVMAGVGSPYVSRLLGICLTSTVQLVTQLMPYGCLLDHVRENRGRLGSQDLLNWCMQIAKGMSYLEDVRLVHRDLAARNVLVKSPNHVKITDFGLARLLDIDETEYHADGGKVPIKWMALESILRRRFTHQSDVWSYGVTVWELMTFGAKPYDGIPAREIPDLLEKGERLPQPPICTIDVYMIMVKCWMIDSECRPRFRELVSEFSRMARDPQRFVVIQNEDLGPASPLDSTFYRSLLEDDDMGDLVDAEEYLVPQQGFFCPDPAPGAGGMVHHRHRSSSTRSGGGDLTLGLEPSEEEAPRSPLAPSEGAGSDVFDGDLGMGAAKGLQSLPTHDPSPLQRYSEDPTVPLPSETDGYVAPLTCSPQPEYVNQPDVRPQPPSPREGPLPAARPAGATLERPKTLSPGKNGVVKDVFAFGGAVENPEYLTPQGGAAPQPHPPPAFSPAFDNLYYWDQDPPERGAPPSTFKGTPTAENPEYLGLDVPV

Compound | IC50 (EGFR) | inhibition at 2 µM (c-Src kinase (human)) | inhibition at 2 µM (Lyn kinase (human)) | inhibition at 1 µM (HER-2) | IC50 (HER-2)
Cc1ccc(Oc2ccc(N3C(=O)Nc4c(C(=O)Nc5ccc(CN6CCOCC6)cc5)sc5ncnc3c45)cc2Cl)cn1 [Cpd 129, 5-[3-chloro-4-(6-methyl-pyridin-3-yloxy)-phenyl]-4-oxo-4,5-dihydro-3H-1-thia-3,5,6,8-tetraaza-acenaphthylene-2-carboxylic acid (4-morpholin-4-ylmethyl-phenyl)-amide] | 154 nM | -3% | 10% | 63% | 515 nM
O=C(Nc1ccc(CN2CCCCC2)cc1)c1sc2ncnc3c2c1NC(=O)N3c1ccc(Oc2cccc(F)c2)cc1 [Cpd 131, 5-[4-(3-fluoro-phenoxy)-phenyl]-4-oxo-4,5-dihydro-3H-1-thia-3,5,6,8-tetraaza-acenaphthylene-2-carboxylic acid (4-piperidin-1-ylmethyl-phenyl)-amide] | 10 nM | 36% | 41% | 91% | 84 nM
O=C(NCCCO)c1sc2ncnc3c2c1NC(=O)N3c1ccc(Oc2cccc(F)c2)cc1 [Cpd 133, 5-[4-(3-fluoro-phenoxy)-phenyl]-4-oxo-4,5-dihydro-3H-1-thia-3,5,6,8-tetraaza-acenaphthylene-2-carboxylic acid (3-hydroxy-propyl)-amide] | 34 nM | 16% | 20% | 0% | > 10000 nM
O=C(Nc1ccc(CN2CCOCC2)cc1)c1sc2ncnc3c2c1NC(=O)N3c1ccc(Oc2cccc(F)c2)cc1 [Cpd 134, 5-[4-(3-fluoro-phenoxy)-phenyl]-4-oxo-4,5-dihydro-3H-1-thia-3,5,6,8-tetraaza-acenaphthylene-2-carboxylic acid (4-morpholin-4-ylmethyl-phenyl)-amide] | 21 nM | 49% | 48% | 35% | 87 nM

More lines, in order of falling IC50 (EGFR), values ahead:

IC50 (EGFR) | inhibition at 2 µM (c-Src kinase (human)) | inhibition at 2 µM (Lyn kinase (human)) | inhibition at 1 µM (HER-2) | IC50 (HER-2) | Compound
191 nM | -3% | 32% |  | > 100000 nM | O=C(Nc1ccccc1)c1sc2ncnc3c2c1NC(=O)N3c1cccc(Br)c1 [Cpd 130, 5-(3-bromo-phenyl)-4-oxo-4,5-dihydro-3H-1-thia-3,5,6,8-tetraaza-acenaphthylene-2-carboxylic acid phenylamide]
31 nM | -41% | 43% | 70% | 222 nM | O=C(Nc1ccc(CCN2CCCCC2)cc1)c1sc2ncnc3c2c1NC(=O)N3c1ccc(Oc2ccccc2)c(Cl)c1 [Cpd 136, 5-(3-chloro-4-phenoxy-phenyl)-4-oxo-4,5-dihydro-3H-1-thia-3,5,6,8-tetraaza-acenaphthylene-2-carboxylic acid [4-(2-piperidin-1-yl-ethyl)-phenyl]-amide]
18 nM | 12% | 46% | 85% | 90 nM | O=C(Nc1ccc(CN2CCCCC2)cc1)c1sc2ncnc3c2c1NC(=O)N3c1ccc(Oc2ccccc2)c(Cl)c1 [Cpd 135, 5-(3-chloro-4-phenoxy-phenyl)-4-oxo-4,5-dihydro-3H-1-thia-3,5,6,8-tetraaza-acenaphthylene-2-carboxylic acid (4-piperidin-1-ylmethyl-phenyl)-amide]
15 nM | 32% | 33% | 76% | 495 nM | O=C(Nc1ccc(CCN2CCCCC2)cc1)c1sc2ncnc3c2c1NC(=O)N3c1ccc(Oc2cccc(F)c2)cc1 [Cpd 132, 5-[4-(3-fluoro-phenoxy)-phenyl]-4-oxo-4,5-dihydro-3H-1-thia-3,5,6,8-tetraaza-acenaphthylene-2-carboxylic acid [4-(2-piperidin-1-yl-ethyl)-phenyl]-amide]
